Read-outs that look alike come from different tables or passages of the source.
Key:
[1] = tested on: HER2- or EGFR-overexpressing human tumour xenografts such as BT-474, 4-1 ST and A431; design: method as in Iwahara et al, 2008; conditions: orally administered; ref Iwahara et al, 2008; cited from earlier work
[2] = design: method as in Shell et al, 2008; conditions: non-clinical; ref Shell et al, 2008; cited from earlier work
solid tumours = experiment: Antitumour activity by RECIST in patients; type: in vivo, human (Japanese patients)
Procedure: The primary study endpoints were to determine the MTD as well as PK profiles of TAK-285 and its metabolite, M-I (data on file, Takeda Pharmaceutical Company Limited). The secondary endpoints were objective response rate (complete response (CR) and partial response (PR)), disease control rate (CR, PR and stable disease (SD), for at least 12 weeks), and time to tumour progression, defined as the time from the first dose of TAK-285 until disease progression or death. Tumour response was assessed every 4 weeks by RECIST version 1.0 ([Therasse et al, 2000]).

[3] = rodent and primate; non-clinical studies; cited from earlier work
[4] = Urinary excretion after oral TAK-285; type: in vivo, human (Japanese patients); conditions: up to 12- or 24-h postdose following single or multiple dosing
Procedure: (§1) In the dose escalation cohort, plasma samples for PK analysis were collected at predose and up to 72 h after single dose administration and on day 21 after repeated administration of TAK-285. Urine samples were also collected up to 24-h postdose. In the repeated administration cohort, plasma samples for PK analysis were collected at predose and up to 12-h postdose on days 1 and 28. Urine samples were also collected up to 12-h postdose each day. Concentrations of TAK-285 and M-I in plasma and urine were determined using validated liquid chromatography tandem mass spectrometry (LC-MS/MS) methods. The plasma and urine samples were treated by liquid–liquid extraction and subjected to LC-MS/MS equipped with a reversed-phase column. The lower limit of quantification for both TAK-285 and M-I was 0.2 ng ml^–1 in plasma and 2 ng ml^–1 in urine when 50 μl of the plasma sample and 55 μl of the urine sample (containing 5 μl of Tween 80 solution) were analysed. Tween 80 solution was added to the urine sample to prevent the adsorption of analytes onto the sample containers. The accuracy of the plasma assay (percentage deviation from nominal) ranged from −10.8 to 11.0% for TAK-285, and from −14.0 to 13.8% for M-I. […] Pharmacokinetic parameters of TAK-285 and M-I were estimated for each patient using noncompartmental methods with Phoenix WinNonlin Version 6.1 (Pharsight, Mountain View, CA, USA).

circulating tumour cells = experiment: Circulating tumour cell enumeration (CellSearch); type: in vivo, human (Japanese patients)
Procedure: At screening and on day 15 after the start of repeated administration, 20 ml of peripheral blood was obtained and divided into two 10 ml exclusive use containers (CellSave tubes) filled with 300 μl of preservative solution (4.6% Na-ethylenediaminetetraacetate, 36% cell preservative, 0.36% polyethylene glycol and 0.4% inert ingredients). The samples were stored at room temperature and processed within 72 h after sampling. The CellSearch System (Veridex LLC, Raritan, NJ, USA) was used for the isolation and enumeration of circulating tumour cells (CTCs), which were defined as nucleated cells lacking cluster of differentiation 45 and expressing cytokeratin.

EGFR = conditions: biochemical; ref Aertgeerts et al, 2011; read-out: 50% inhibition concentration, EGFR phosphorylation; cited from earlier work
[5] = Plasma pharmacokinetics after oral TAK-285 (LC-MS/MS, noncompartmental); type: in vivo, human (Japanese patients); conditions: for Cmax / half-life / Tmax / AUC(0-inf) / AUC: human, plasma, oral; for Tmax: median (range); for AUC: read-out: AUC0–tau
Procedure: as §1

HER2 = conditions: biochemical; ref Aertgeerts et al, 2011; read-out: 50% inhibition concentration, HER2 phosphorylation; cited from earlier work
[6] = 50 mg, single dosing, 50 mg b.i.d., dose escalation cohort, mean (s.d.)
[7] = 50 mg, single dosing, 50 mg q.d., dose escalation cohort, mean (s.d.)
[8] = 100 mg, single dosing, 100 mg b.i.d., dose escalation cohort, mean (s.d.)
[9] = 200 mg, single dosing, 200 mg b.i.d., dose escalation cohort, mean (s.d.)
[10] = 300 mg, single dosing, 300 mg b.i.d., repeated administration cohort, mean (s.d.)
[11] = multiple versus single dosing, across doses

## CC(C)(O)CC(=O)NCCn1ccc2ncnc(Nc3ccc(Oc4cccc(C(F)(F)F)c4)c(Cl)c3)c21 [TAK-285]
[1]
  xenograft growth: effectively inhibited xenograft growth
[2]
  cardiac risks: potentially no exhibition of elevated cardiac risks
Solid tumours; 1 of 26 patients
  disease control rate: […]
  objective response rate: […]
Solid tumours; 26 patients
  median time to tumour progression: […]
Solid tumours; dose escalation cohort
  patients showing reduction in tumour size: one
Solid tumours; of 26 patients
  patients achieving partial response (PR), percent: […]
Solid tumours; parotid cancer, 300 mg b.i.d.
  patients achieving partial response (PR), number: One
Solid tumours; patient with parotid cancer
  duration of partial response: […]
Solid tumours; repeated administration cohort, of six patients
  patients showing reduction in tumour size: three
[3]
  tolerability in toxicity models: well tolerated
[4]
  mean cumulative excretion ratio in urine: […]
Circulating tumour cells; screening versus cycle 1 day 15
  circulating tumour cell (CTC) changes after treatment: did not show significant changes
Circulating tumour cells; seven patients with ⩾5 cells per 7.5 ml blood at baseline
  patients with unfavourable baseline CTC count converted to favourable: none
EGFR
  IC50: […]
[5]; day 21, 50 mg b.i.d., dose escalation cohort, mean (s.d.)
  R (Cmax), accumulation ratio multiple versus single dosing: […]
[5]; day 21, 50 mg q.d., dose escalation cohort, mean (s.d.)
  R (Cmax), accumulation ratio multiple versus single dosing: […]
[5]; day 21, 100 mg b.i.d., dose escalation cohort, mean (s.d.)
  R (Cmax), accumulation ratio multiple versus single dosing: […]
[5]; day 21, 200 mg b.i.d., dose escalation cohort, mean (s.d.)
  R (Cmax), accumulation ratio multiple versus single dosing: […]
[5]; day 21, 300 mg b.i.d., dose escalation cohort, mean (s.d.)
  R (Cmax), accumulation ratio multiple versus single dosing: […]
[5]; day 28, 300 mg b.i.d., repeated administration cohort, mean (s.d.)
  R (Cmax), accumulation ratio multiple versus single dosing: […]
[5]; 50 mg b.i.d., multiple dosing day 21, 50 mg b.i.d., dose escalation cohort, mean (s.d.)
  Cmax: […]
[5]; 50 mg b.i.d., multiple dosing day 21, 50 mg b.i.d., dose escalation cohort, mean (s.d.), read-out: t1/2 (converted)
  half-life: […]
[5]; 50 mg b.i.d., multiple dosing day 21, 50 mg b.i.d., dose escalation cohort
  Tmax: […]
[5]; 50 mg q.d., multiple dosing day 21, 50 mg q.d., dose escalation cohort, mean (s.d.)
  Cmax: […]
[5]; 50 mg q.d., multiple dosing day 21, 50 mg q.d., dose escalation cohort, mean (s.d.), read-out: t1/2 (converted)
  half-life: […]
[5]; 50 mg q.d., multiple dosing day 21, 50 mg q.d., dose escalation cohort
  Tmax: […]
[5]; [6]
  AUC(0-inf): […]
  Cmax: […]
[5]; 50 mg, single dosing, 50 mg b.i.d., dose escalation cohort, mean (s.d.), read-out: t1/2 (converted)
  half-life: […]
[5]; 50 mg, single dosing, 50 mg b.i.d., dose escalation cohort
  Tmax: […]
[5]; [7]
  Cmax: 214 ng/mL
[5]; 50 mg, single dosing, 50 mg q.d., dose escalation cohort, mean (s.d.), read-out: t1/2 (converted)
  half-life: […]
[5]; 50 mg, single dosing, 50 mg q.d., dose escalation cohort
  Tmax: […]
[5]; 100 mg b.i.d., multiple dosing day 21, 100 mg b.i.d., dose escalation cohort, mean (s.d.)
  Cmax: 774 ng/mL
[5]; 100 mg b.i.d., multiple dosing day 21, 100 mg b.i.d., dose escalation cohort, mean (s.d.), read-out: t1/2 (converted)
  half-life: […]
[5]; 100 mg b.i.d., multiple dosing day 21, 100 mg b.i.d., dose escalation cohort
  Tmax: […]
[5]; [8]
  Cmax: 379 ng/mL
[5]; 100 mg, single dosing, 100 mg b.i.d., dose escalation cohort, mean (s.d.), read-out: t1/2 (converted)
  half-life: […]
[5]; 100 mg, single dosing, 100 mg b.i.d., dose escalation cohort
  Tmax: […]
[5]; 200 mg b.i.d., multiple dosing day 21, 200 mg b.i.d., dose escalation cohort, mean (s.d.)
  Cmax: […]
[5]; 200 mg b.i.d., multiple dosing day 21, 200 mg b.i.d., dose escalation cohort, mean (s.d.), read-out: t1/2 (converted)
  half-life: […]
[5]; 200 mg b.i.d., multiple dosing day 21, 200 mg b.i.d., dose escalation cohort
  Tmax: […]
[5]; [9]
  AUC(0-inf): […]
  Cmax: […]
[5]; 200 mg, single dosing, 200 mg b.i.d., dose escalation cohort, mean (s.d.), read-out: t1/2 (converted)
  half-life: […]
[5]; 200 mg, single dosing, 200 mg b.i.d., dose escalation cohort
  Tmax: […]
[5]; 300 mg b.i.d., multiple dosing day 21, 300 mg b.i.d., dose escalation cohort, mean (s.d.)
  Cmax: […]
[5]; 300 mg b.i.d., multiple dosing day 21, 300 mg b.i.d., dose escalation cohort, mean (s.d.), read-out: t1/2 (converted)
  half-life: […]
[5]; 300 mg b.i.d., multiple dosing day 21, 300 mg b.i.d., dose escalation cohort
  Tmax: […]
[5]; 300 mg, multiple dosing day 28, 300 mg b.i.d., repeated administration cohort, mean (s.d.)
  Cmax: […]
[5]; 300 mg, multiple dosing day 28, 300 mg b.i.d., repeated administration cohort, mean (s.d.), read-out: t1/2 (converted)
  half-life: 11.1 h
[5]; 300 mg, multiple dosing day 28, 300 mg b.i.d., repeated administration cohort
  Tmax: […]
[5]; 300 mg, single dosing, 300 mg b.i.d., dose escalation cohort, mean (s.d.)
  Cmax: […]
[5]; 300 mg, single dosing, 300 mg b.i.d., dose escalation cohort, mean (s.d.), read-out: t1/2 (converted)
  half-life: […]
[5]; 300 mg, single dosing, 300 mg b.i.d., dose escalation cohort
  Tmax: […]
[5]; [10]
  AUC(0-inf): […]
  Cmax: […]
[5]; 300 mg, single dosing, 300 mg b.i.d., repeated administration cohort, mean (s.d.), read-out: t1/2 (converted)
  half-life: […]
[5]; 300 mg, single dosing, 300 mg b.i.d., repeated administration cohort
  Tmax: […]
[5]; at all doses, single dose, read-out: estimated terminal-phase half-life (t1/2)
  half-life: […]
[5]; multiple dosing day 21, 50 mg b.i.d., dose escalation cohort, mean (s.d.)
  AUC: […]
[5]; multiple dosing day 21, 50 mg q.d., dose escalation cohort, mean (s.d.)
  AUC: […]
[5]; multiple dosing day 21, 100 mg b.i.d., dose escalation cohort, mean (s.d.)
  AUC: […]
[5]; [11]
  accumulation ratios of AUC: […]
  accumulation ratios of Cmax: […]
HER2
  IC50: […]
